# In patent US12606578B2, “Crystal form of spirocyclic amine aryl phosphorus oxide compound and preparation method therefor” (Qilu Pharmaceutical Co., LTD., priority 2022, dated 2026):
# How the values were obtained:
# [1] = disclosed in reference CN110407877, 90% RH; cited from earlier work
# [2] = Stability test under high temperature, high humidity and light (HPLC purity, XRPD); assay type: physicochemical; settings: for Purity: HPLC; for Crystal form: XRPD
# Method: Determination of HPLC is performed by Waters e2695 high performance liquid chromatograph to analyze the samples.
# The stability of the crystal form Q4 of the compound of Formula (I) under high temperature, high humidity and light conditions was investigated. After placing for 5 days and 10 days under specific conditions, purity was tested by HPLC, and XRPD was performed.
# [3] = Flow ability test (bulk density, tap density, Carr index); assay type: physicochemical
# Method: The tap density was measured by SVM203 Tapped Density Meter.
# Bulk density and tap density of bulk drugs with different crystal forms and particle sizes were tested, and Carr index was calculated.
# Therefore, compared with the crystal form A, the crystal form Q4 has obvious advantages in terms of powder mixing uniformity of bulk drugs and the preparation of solid preparations.
# [4] = Hydroscopicity experiment (DVS water sorption/desorption); assay type: physicochemical
# Source text: Description of hydroscopicity characteristics and definition of hygroscopic weight gain (Chinese Pharmacopoeia 2020 Edition, General Chapter 9103, Guidelines for Hydroscopicity Trials for Pharmaceuticals): • Deliquescence: absorb enough water to form liquid; • Extremely hygroscopic: the hygroscopic weight gain is not less than 15.0%; • Hygroscopic: hygroscopic weight gain is less than 15.0% but not less than 2.0%; • Mild hygroscopic: hygroscopic weight gain is less than 2.0% but not less than 0.2%; • Non-or almost non-hygroscopic: the hygroscopic weight gain is less than 0.2%.
# The hydroscopicity of the samples was determined using a DVS Intrinsic dynamic vapor sorption analyzer. The samples were placed in a peeled sample basket, the instrument weighed automatically, and the samples were analyzed according to the parameters in Table 4.
# According to “Guidelines for Hydroscopicity Trials for Pharmaceuticals” in Chinese Pharmacopoeia 2020 Edition, the data of water sorption/desorption of the crystal form Q4 of the compound of Formula (I) were tested.
# [5] = Particle size analysis (PSA); assay type: physicochemical
# Method: Malvern's laser scattering particle size distribution analyzer was used to analyze the particle size of solid powder. An appropriate amount of solid powder was taken into a sampler, the samples were tested according to the parameters listed in Table 5, and the data was analyzed by Mastersizer-v3.60.
# [6] = Equilibrium solubility in four media with XRPD of the solids; assay type: physicochemical; settings: for Solubility / Crystal transformation before and after the solubility test: 37° C.; for Solubility / solubility at 24 h: 200 rpm; for Solubility / Crystal transformation before and after the solubility test / solubility at 24 h: 24 h; for Crystal transformation before and after the solubility test: four media, XRPD; for solubility at 24 h: 37 °C, thermodynamic from solid
# Method: At 37° C., appropriate amounts of the crystal form Q4 and crystal form A of the compound of Formula (I) were taken and dispersed in water, artificial gastric fluid (SGF, Simulated Gastric Fluid), artificial intestinal fluid under fed state (FeSSIF, Fed State Simulated Intestinal Fluid) and artificial intestinal fluid under fasted state (FaSSIF, Fasted State Simulated Intestinal Fluid) respectively to prepare suspension, and after equilibration at 200 rpm for 24 h, the content (mg/mL) of the sample in the solution were tested by HPLC and the samples in the solution were tested by XRPD, respectively.
# [7] = bulk drug D90 69.2 μm (Q4), 62 μm (A)
# [8] = bulk drugs of substantially the same particle size used in flow ability test
compound,measurement,setting,value
COc1cc(N2CCC3(CCN(C)CC3)CC2)ccc1Nc1ncc(Cl)c(Nc2ccccc2P(C)(C)=O)n1 [Crystal form B],Weight gain under 90% RH humidity condition,[1],0.70%
COc1cc(N2CCC3(CCN(C)CC3)CC2)ccc1Nc1ncc(Cl)c(Nc2ccccc2P(C)(C)=O)n1 [Crystal form Q4],Related substances: Impurity LG RRT = 1.98,[2]; 40° C.-5 D,0.04%
same,Related substances: Impurity LO RRT = 0.89,[2]; 40° C.-5 D,0.01%
same,Related substances: Impurity LP RRT = 1.16,[2]; 40° C.-5 D,0.02%
same,Related substances: Impurity QA RRT = 0.95,[2]; 40° C.-5 D,0.01%
same,Purity,[2]; 40° C.-5 D,99.88%
same,Crystal form,[2]; 40° C.-5 D,form Q4
same,Related substances: Impurity LG RRT = 1.98,[2]; 40° C.-10 D,0.04%
same,Related substances: Impurity LO RRT = 0.89,[2]; 40° C.-10 D,0.01%
same,Related substances: Impurity LP RRT = 1.16,[2]; 40° C.-10 D,0.03%
same,Related substances: Impurity QA RRT = 0.95,[2]; 40° C.-10 D,0.01%
same,Purity,[2]; 40° C.-10 D,99.87%
same,Crystal form,[2]; 40° C.-10 D,form Q4
same,Related substances: Impurity LG RRT = 1.98,[2]; 60° C.-5 D,0.04%
same,Related substances: Impurity LO RRT = 0.89,[2]; 60° C.-5 D,0.01%
same,Related substances: Impurity LP RRT = 1.16,[2]; 60° C.-5 D,0.02%
same,Related substances: Impurity QA RRT = 0.95,[2]; 60° C.-5 D,0.01%
same,Purity,[2]; 60° C.-5 D,99.86%
same,Crystal form,[2]; 60° C.-5 D,form Q4
same,Related substances: Impurity LG RRT = 1.98,[2]; 60° C.-10 D,0.04%
same,Related substances: Impurity LO RRT = 0.89,[2]; 60° C.-10 D,0.01%
same,Related substances: Impurity LP RRT = 1.16,[2]; 60° C.-10 D,0.02%
same,Related substances: Impurity QA RRT = 0.95,[2]; 60° C.-10 D,0.01%
same,Purity,[2]; 60° C.-10 D,99.88%
same,Crystal form,[2]; 60° C.-10 D,form Q4
same,Related substances: Impurity LG RRT = 1.98,[2]; 75RH-5 D,0.04%
same,Related substances: Impurity LO RRT = 0.89,[2]; 75RH-5 D,0.01%
same,Related substances: Impurity LP RRT = 1.16,[2]; 75RH-5 D,0.01%
same,Related substances: Impurity QA RRT = 0.95,[2]; 75RH-5 D,0.01%
same,Purity,[2]; 75RH-5 D,99.88%
same,Crystal form,[2]; 75RH-5 D,form Q4
same,Related substances: Impurity LG RRT = 1.98,[2]; 75RH-10 D,0.04%
same,Related substances: Impurity LO RRT = 0.89,[2]; 75RH-10 D,0.01%
same,Related substances: Impurity LP RRT = 1.16,[2]; 75RH-10 D,0.02%
same,Related substances: Impurity QA RRT = 0.95,[2]; 75RH-10 D,0.01%
same,Purity,[2]; 75RH-10 D,99.88%
same,Crystal form,[2]; 75RH-10 D,form Q4
same,Related substances: Impurity LG RRT = 1.98,[2]; 90RH-5 D,0.04%
same,Related substances: Impurity LO RRT = 0.89,[2]; 90RH-5 D,0.02%
same,Related substances: Impurity LP RRT = 1.16,[2]; 90RH-5 D,0.01%
same,Related substances: Impurity QA RRT = 0.95,[2]; 90RH-5 D,0.01%
same,Purity,[2]; 90RH-5 D,99.87%
same,Crystal form,[2]; 90RH-5 D,form Q4
same,Related substances: Impurity LG RRT = 1.98,[2]; 90RH-10 D,0.04%
same,Related substances: Impurity LO RRT = 0.89,[2]; 90RH-10 D,0.01%
same,Related substances: Impurity LP RRT = 1.16,[2]; 90RH-10 D,0.03%
same,Related substances: Impurity QA RRT = 0.95,[2]; 90RH-10 D,0.01%
same,Purity,[2]; 90RH-10 D,99.83%
same,Crystal form,[2]; 90RH-10 D,form Q4
same,Related substances: Impurity LG RRT = 1.98,[2]; Light-5 D,0.04%
same,Related substances: Impurity LO RRT = 0.89,[2]; Light-5 D,0.03%
same,Related substances: Impurity LP RRT = 1.16,[2]; Light-5 D,0.02%
same,Related substances: Impurity QA RRT = 0.95,[2]; Light-5 D,0.01%
same,Purity,[2]; Light-5 D,99.82%
same,Crystal form,[2]; Light-5 D,form Q4
same,Related substances: Impurity LG RRT = 1.98,[2]; Light-10 D,0.03%
same,Related substances: Impurity LO RRT = 0.89,[2]; Light-10 D,0.03%
same,Related substances: Impurity LP RRT = 1.16,[2]; Light-10 D,0.02%
same,Related substances: Impurity QA RRT = 0.95,[2]; Light-10 D,0.01%
same,Purity,[2]; Light-10 D,99.86%
same,Crystal form,[2]; Light-10 D,form Q4
same,Related substances: Impurity LG RRT = 1.98,[2]; Start,0.03%
same,Related substances: Impurity LO RRT = 0.89,[2]; Start,0.01%
same,Related substances: Impurity LP RRT = 1.16,[2]; Start,0.02%
same,Related substances: Impurity QA RRT = 0.95,[2]; Start,0.01%
same,Purity,[2]; Start,99.90%
same,Crystal form,[2]; Start,form Q4
same,Degradation / stability,"[2]; high temperature, high humidity and light conditions, 5 and 10 days",no obvious degradation
same,Bulk density,[3]; [7],0.28 g/mL
same,Carr index: (tap density-bulk density)/tap density,[3]; [7],24.32%
same,Evaluation (flow ability),[3]; [7],fair flow
same,Tap density,[3]; [7],0.37 g/mL
same,Bulk density,[3]; bulk drug D90 145.2 μm,0.42 g/mL
same,Carr index: (tap density-bulk density)/tap density,[3]; bulk drug D90 145.2 μm,17.65%
same,Evaluation (flow ability),[3]; bulk drug D90 145.2 μm,good or medium (16 to 20%)
same,Tap density,[3]; bulk drug D90 145.2 μm,0.51 g/mL
same,Flow ability compared with the crystal form A,[3]; substantially the same particle size,better flow ability compared with the crystal form A
same,Evaluation of hydroscopicity,"[4]; Chinese Pharmacopoeia 2020 criteria, weight gain at 80% RH",non- or almost non-hygroscopic
same,80% RH weight gain,"[4]; DVS, 80% RH",0.10%
same,90% RH weight gain,"[4]; DVS, 90% RH",0.12%
same,"Crystal transformation, XRPD before and after DVS test",[4]; before and after DVS test,no crystal transformation before and after the test
same,"Hydroscopicity compared with the crystal forms A, B and C",[4]; hygroscopic weight gain comparison,"less hydroscopicity than the crystal forms A, B and C"
same,D10,"[5]; PSA, Example 3 batch",10.8 μm
same,D50,"[5]; PSA, Example 3 batch",62.6 μm
same,D90,"[5]; PSA, Example 3 batch",145.2 μm
same,Particle size of bulk D90,[5]; [8],69.2 μm
same,Particle size of bulk D90,[5]; larger particle size Q4 bulk drug used in flow ability test,145.2 μm
same,Solubility compared with the crystal form A,[6]; FaSSIF,better than that of the crystal form A
same,Solubility,[6]; FaSSIF (pH 6.5),5750 µg/mL
same,Solubility,[6]; FeSSIF (pH 5.0),23560 µg/mL
same,Solubility,[6]; SGF (pH 1.8),9280 µg/mL
same,Solubility,[6]; Water,40 µg/mL
same,Crystal transformation before and after the solubility test,[6],do not transform before and after the test
"COc1cc(N2CCC3(CCN(C)CC3)CC2)ccc1Nc1ncc(Cl)c(Nc2ccccc2P(C)(C)=O)n1 [Crystal form A, reference compound]",Weight gain under 90% RH humidity condition,[1],0.17%
same,Bulk density,[3]; [7],0.48 g/mL
same,Carr index: (tap density-bulk density)/tap density,[3]; [7],31.43%
same,Evaluation (flow ability),[3]; [7],poor flow
same,Tap density,[3]; [7],0.70 g/mL
same,Particle size of bulk D90,[5]; [8],62 μm
same,solubility at 24 h,"[6]; fasted state simulated intestinal fluid (FaSSIF), pH 6.5, fassif, FaSSIF (pH 6.5)",4560 µg/mL
same,solubility at 24 h,"[6]; fed state simulated intestinal fluid (FeSSIF), pH 5, fessif, FeSSIF (pH 5.0)",23600 µg/mL
same,Crystal transformation before and after the solubility test,[6],do not transform before and after the test
same,solubility at 24 h,"[6]; simulated gastric fluid (SGF), pH 1.8, simulated gastric fluid, SGF (pH 1.8)",9300 µg/mL
same,solubility at 24 h,[6]; water,40 µg/mL
COc1cc(N2CCC3(CCN(C)CC3)CC2)ccc1Nc1ncc(Cl)c(Nc2ccccc2P(C)(C)=O)n1 [Crystal form C],Weight gain under 90% RH humidity condition,[1],0.62%
